Reference: publication PMC10010340, “The Wnt Pathway Inhibitor RXC004 Blocks Tumor Growth and Reverses Immune Evasion in Wnt Ligand–dependent Cancer Models” (Cancer Research Communications, 2022)

Assay: Hepatocyte stability
Type: in vitro ADME, rat (Sprague Dawley)
Details: Rat, 1 μmol/L
Experimental: Metabolic stability: liver microsomes and hepatocytes from human, mouse (CD1), rat (Sprague Dawley) and dog (Beagle) were obtained from Invitrogen. RXC004 (1 μmol/L) was incubated at 37°C with microsomes (0.5 mg · mL^−1) or hepatocytes (0.5 × 10^6 cells · mL^−1). Aliquots were removed at 0–45 minutes and RXC004 concentrations determined by LC/MS-MS analysis. Half-life (T1/2) and intrinsic clearance (CLint) were calculated as described in ref. [18].

Cc1c(-c2ccnc(C(F)(F)F)c2)ncn1CC(=O)Nc1ccc(-c2cnccn2)cn1 [RXC004, 2-[5-methyl-4-[2-(trifluoromethyl)-4-pyridyl]imidazol-1-yl]-N-(5-pyrazin-2-yl-2-pyridyl)acetamide]
Hepatocyte stability: CLint: 5.3 μL minute^−^1 · 10^6 cells^−^1
